The source of these data is patent US9051240B2, “Substituted 2-[2-(phenyl) ethylamino] alkaneamide derivatives and their use as sodium and/or calcium channel modulators” (Newron Pharmaceuticals S.P.A., priority 2007, dated 2015).

Like-named read-outs stand apart in the source and are kept apart here.

In assay [1] the target is Na+ currents in rat cortical neurons. Kind of assay: Patch clamp evaluation of Na+ currents blockade in rat cortical neurons. The conditions noted are these: for Ki: calculated from Kr and Kdep, read-out: Ki (apparent affinity for the inactivated state). It counts as cell-based. Here is the method: Cortical neurons were prepared from embryonic Wistar rats (E17-E19). A female rat at date 17-19 of pregnancy was anesthetized and sacrificed. The fetuses (n=4-5) were dissected and placed in ice-cold Hank's solution (Hank's solution (Life tech.14170-088)+glucose 30%+Pen-Strep 100× (Life Tech. 15140-122) 100U-100 μg/ml and Hepes-NaOH 5 mM). The uterus and placenta were removed, the fetuses were decapitated and the heads were placed in ice-cold Hank's solution. Cells were counted and diluted in Neurobasal medium to a concentration of 400000 cells per poly-D-lysine 5 μg/ml treated Petri dish. Cortical neurons were used from day 6th till day 11th after plating, and once a week Neurobasal medium was changed. Experiments on cortical neurons were carried out using standard whole cell patch clamp methods (Hamill et al., Pfugers Arch., 1981 August, 391(12), 85-100). Membrane currents were recorded and filtered at 5 kHz with an Axon Axopatch 200B amplifier and data digitized with an Axon Digidata 1322A (Axon Instruments, CA, USA). Protocol playing and data acquisition were controlled online with Axon pClamp8 software. Measuring and reference electrodes were AgCl-Ag electrodes. A Sutter Instrument P-87 Puller (CA, USA) was used for pulling patch clamp pipettes with a resistance of 2-3 MΩ from Harward borosilicate glass tubes. Cells were continuously superfused with extracellular solutions, using a solution changer Biologic RSC-200. To test the effect of compounds on sodium currents in cortical neurons, cells were clamped at -90 mV, then a two step protocol was used to determine the voltage dependence of the block. […] Tonic block of resting and depolarized currents at a given drug concentration, was calculated as the difference between the peak Na^+ current in the control external bath solution and peak currents with the test substance divided by control peak. Drug concentration-inhibition curves were obtained by plotting tonic blocks in the resting and depolarized condition, versus drug concentrations. Dose-response curves were fitted to the tonic block data, according to the logistic equation: […] Control bath solution contained (mM): […] Internal pipette solution consisted of (mM): […] Compounds were dissolved as stock solutions (20 mM) in DMSO. They were diluted to the final concentrations in the external solution.

For the next assay, the system named is SNL rats. Kind of assay: Spinal nerve ligation model of neuropathic pain (thermal hyperalgesia). It counts as in vivo. Particulars: Rattus norvegicus, po, orally administered.
A further assay deals with mice. Nature of the assay: Amphetamine and chlordiazepoxide-induced hyperlocomotion in mice. The conditions noted are these: 20.0 mg/Kg po. It counts as in vivo. Here is the method:
In this model, mice are treated with a mixture of d-amphetamine plus an anxiolytic dose of the benzodiazepine, chlordiazepoxide (Rushton R, Steinberg H. Combined effects of chlordiazepoxide and d-amphetamine on activity of rats in an unfamiliar environment. Nature 1966; 211:1312-3; R. Arban, G. Maraia, K. Brackenborough, L. Winyard, A. Wilson, P. Gerrard, C. Large. Evaluation of the effects of lamotrigine, valproate and carbamazepine in a rodent model of mania Behavioural Brain Research, 158: 123-132). The model has been claimed to mimic some aspects of mania in bipolar disorder. Importantly, the hyperactivity induced by the mixture of d-amphetamine and chlordiazepoxide could be prevented by prior administration of the established mood stabilizer, lithium, as well as other mood stabilizers drugs (e.g. magnesium valproate and carbamazepine). […]
Amphetamine (AMP) (2.5 mg/kg) plus chlordiazepoxide hydrochloride (CDZ) (3 mg/kg/ip) were administered to male Albino Swiss mice (25-32 g) in a volume of 10 ml/kg. The locomotor activity was recorded using Opto-M3 System (Columbus Instruments) which is multi-channel activity monitor. […] The locomotor activity (ambulation and total activity count) was evaluated for 30 min. […]
Statistical analysis: the data were evaluated by an analysis of variance (ANOVA), followed, when appropriate, by individual comparison with the control using Dunnett's test.

The next assay has as its system L-type calcium channels. Nature of the assay: Calcium channel influx assay (fluorescence, AtT20 cell line). It counts as cell-based, mouse. Particulars: AtT20 cells, 100 mM KCl depolarization; read-out: Ca++ influx IC50. Here is the method: AtT20/D16v-F2 mouse pituitary tumour cell line preferentially expresses L-type calcium channels.
AtT20 cells were grown in DMEM with 10% of FBS, 4 mM glutamine. The cells were seeded at 200,000 cells/well on 96 poly-L-lysine-coated plates and further incubated for 18-24 h, before use.
The Ca^++ Kit Assay (Molecular Devices), which is based on a fluorescent calcium indicator to detect the calcium influx determined by depolarizing conditions, was used for the assay.
Cells were incubated with the calcium dye loading for 30 min at 37° C. Then, ω-conotoxin alone (1 μM) or in presence of nifedipine (as reference standard) or test compound were added for further 15 min.
The fluorescence (excitation: 485-emission: 535 nm wavelength) was measured before and after (30-40 sec) the automated injection of 100 mM KCl depolarizing solution using a Victor plate reader (Perkin Elmer).
The inhibition curves were calculated from 5 concentrations, each in triplicate, and the IC50 determined using linear regression analysis.

[2] abbreviates: preconditioning potential -110 mV, read-out: IC50 resting (Kr).
Where [3] appears, read: preconditioning potential ~-50 mV, read-out: IC50 depolarized.

With `CCCCOc1cccc(CCNCC(=O)N(C)C)c1.Cl` [2-[2-(3-Butoxyphenyl)-ethylamino]-N,N-dimethylacetamide hydrochloride], the Ki in assay [1] is 0.4 µM. The values for the IC50 in assay [1] (setting [2]) and in assay [1] (setting [3]) were 25 µM and 0.8 µM, respectively. This molecule also registered an ED50 with SNL rats of 10.6 mg/kg. In the assay on mice (amphetamine 2.5 mg/kg i.p.), the “hyperactivity (ambulation over 30 min) induced by amphetamine alone” value is recorded as “reduced hyperactivity”. Besides, the “hyperactivity (ambulation over 30 min) induced by the mixture of amphetamine and chlordiazepoxide” value in the assay on mice (amphetamine 2.5 mg/kg i.p. + chlordiazepoxide 3.0 mg/Kg ip) is on record as “reduced hyperactivity”.
`C[C@H](NCc1ccc(OCc2ccccc2F)cc1)C(N)=O` [ralfinamide, (S)-(+)-2-[4-(2-fluorobenzyloxy)-benzylamino]-propanamide, reference compound]: the Ki in assay [1] is 4.7 µM. The IC50 was greater than 100 µM in assay [1] (setting [2]); 9 µM in assay [1] (setting [3]); 213 µM in assay [1] (resting condition, figure in parentheses after >100, read-out: IC50 resting (Kr), value in parentheses); 26 µM in the assay with L-type calcium channels.

What is called IC50 is the concentration that inhibits the measured activity by half. What is called ED50 is the midpoint of the dose-response relation. A high value points to a need for a large dose.
